The values that follow come from ChEMBL document CHEMBL4024701, “Optimization and Structure-Activity Relationships of Phosphinic Pseudotripeptide Inhibitors of Aminopeptidases That Generate Antigenic Peptides” (J Med Chem, 2016).

Structures are written as SMILES.

The target of series [1] is Endoplasmic reticulum aminopeptidase 1 (Homo sapiens, UniProt Q9NZ08). As to the kind of experiment: Inhibition of ERAP1 (unknown origin) expressed in Hi5 cells by in vitro fluorimetric assay.
Series [2] addresses Leucyl-cystinyl aminopeptidase (Homo sapiens, UniProt Q9UIQ6). Nature of the series: Inhibition of IRAP (unknown origin) expressed in HEK 293S GnTI(-) cells by in vitro fluorimetric assay. The series is classed as cell-based.
Series [3] can be described thus: Effect on cross-presentation activity of IRAP-/- knockdown C57Bl/6 mouse […] assessed as IL2 level in CD8+ T-cells isolated from lymph nodes of Rag-1-/- C57Bl/6 OT-I mouse at 3 to 1000 nmol/L pre-incubated for 60 mins followed by addition of ovalbumin measured after 6 hrs by sandwich ELISA assay. The series is classed as ADME, cell-based.
Series [4] addresses T1, Leucyl-cystinyl aminopeptidase (Mus musculus) (UniProt Q8C129).
T1 sequence (whole entry): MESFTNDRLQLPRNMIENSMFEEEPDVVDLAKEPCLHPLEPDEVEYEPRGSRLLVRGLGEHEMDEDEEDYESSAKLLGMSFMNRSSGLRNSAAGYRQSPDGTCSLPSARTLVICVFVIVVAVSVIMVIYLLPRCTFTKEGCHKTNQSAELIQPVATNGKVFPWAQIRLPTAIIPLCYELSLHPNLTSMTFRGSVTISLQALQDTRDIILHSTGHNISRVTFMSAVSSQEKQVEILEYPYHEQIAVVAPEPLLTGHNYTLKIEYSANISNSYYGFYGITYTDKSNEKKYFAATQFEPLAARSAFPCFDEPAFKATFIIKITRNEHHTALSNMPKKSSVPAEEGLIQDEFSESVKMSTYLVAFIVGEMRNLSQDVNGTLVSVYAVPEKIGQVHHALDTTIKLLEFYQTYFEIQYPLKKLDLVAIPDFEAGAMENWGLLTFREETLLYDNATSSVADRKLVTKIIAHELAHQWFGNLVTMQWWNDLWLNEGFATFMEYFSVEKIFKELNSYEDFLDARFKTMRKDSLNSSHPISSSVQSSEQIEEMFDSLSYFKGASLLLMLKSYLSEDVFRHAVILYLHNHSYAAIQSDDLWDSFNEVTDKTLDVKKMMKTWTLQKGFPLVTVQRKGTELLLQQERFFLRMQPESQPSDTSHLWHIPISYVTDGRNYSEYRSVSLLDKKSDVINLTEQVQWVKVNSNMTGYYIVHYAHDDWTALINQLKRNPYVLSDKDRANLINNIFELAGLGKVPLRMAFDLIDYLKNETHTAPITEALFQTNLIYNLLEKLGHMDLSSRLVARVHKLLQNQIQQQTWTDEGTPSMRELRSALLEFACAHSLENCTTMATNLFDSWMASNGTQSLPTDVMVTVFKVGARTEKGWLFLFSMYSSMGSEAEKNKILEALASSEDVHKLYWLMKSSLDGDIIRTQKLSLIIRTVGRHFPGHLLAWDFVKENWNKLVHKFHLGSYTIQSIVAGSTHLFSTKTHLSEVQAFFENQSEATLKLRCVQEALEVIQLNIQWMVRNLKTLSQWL
Nature of the series: Inhibition of IRAP in C57Bl/6 mouse CD8 alpha-positive cells assessed as reduction of IRAP-dependent cross-presentation activity by measuring IL2 level in CD8+ T-cells isolated from lymph nodes of Rag-1-/- C57Bl/6 OT-I mouse at 3 to 3333 nM pre-incubated for 60 mins followed by addition of ovalbumin measured after 6 hrs by sandwich ELISA.

Series [5] can be described thus: Effect on cross-presentation activity of IRAP-/- knockdown C57Bl/6 mouse CD11b-positive dendritic cells assessed as IL2 level in CD8+ T-cells isolated from lymph nodes of Rag-1-/- C57Bl/6 OT-I mouse at 3.3 uM pre-incubated for 60 mins followed by addition of ovalbumin measured after 6 hrs by sandwich ELISA assay. The series is classed as ADME, cell-based. The following applies: cd11b-positive dendritic cell.

Series [6] in a line: Effect on cross-presentation activity of IRAP-/- knockdown C57Bl/6 mouse CD11b-positive dendritic cells assessed as IL2 level in CD8+ T-cells isolated from lymph nodes of Rag-1-/- C57Bl/6 OT-I mouse at 3 to 1000 nmol/L pre-incubated for 60 mins followed by addition of ovalbumin measured after 6 hrs by sandwich ELISA assay. The series is classed as ADME, cell-based. The following applies: cd11b-positive dendritic cell.

Series [7] concerns the target T1, Leucyl-cystinyl aminopeptidase (Mus musculus). As to the kind of experiment: Inhibition of IRAP in C57Bl/6 mouse CD11b-positive dendritic cells assessed as reduction of IRAP-dependent cross-presentation activity by measuring IL2 level in CD8+ T-cells isolated from lymph nodes of Rag-1-/- C57Bl/6 OT-I mouse at 3 to 3333 nM pre-incubated for 60 mins followed by addition of ovalbumin measured after 6 hrs by sandwich ELISA.

The nature of series [8]: Effect on cross-presentation activity of IRAP-/- knockdown C57Bl/6 mouse CD8alpha-positive dendritic cells assessed as IL2 level in CD8+ T-cells isolated from lymph nodes of Rag-1-/- C57Bl/6 OT-I mouse at 3.3 uM pre-incubated for 60 mins followed by addition of ovalbumin measured after 6 hrs by sandwich ELISA assay. The following applies: cd8alpha-positive dendritic cell.

Endoplasmic reticulum aminopeptidase 1, sequence (Q9NZ08 whole entry): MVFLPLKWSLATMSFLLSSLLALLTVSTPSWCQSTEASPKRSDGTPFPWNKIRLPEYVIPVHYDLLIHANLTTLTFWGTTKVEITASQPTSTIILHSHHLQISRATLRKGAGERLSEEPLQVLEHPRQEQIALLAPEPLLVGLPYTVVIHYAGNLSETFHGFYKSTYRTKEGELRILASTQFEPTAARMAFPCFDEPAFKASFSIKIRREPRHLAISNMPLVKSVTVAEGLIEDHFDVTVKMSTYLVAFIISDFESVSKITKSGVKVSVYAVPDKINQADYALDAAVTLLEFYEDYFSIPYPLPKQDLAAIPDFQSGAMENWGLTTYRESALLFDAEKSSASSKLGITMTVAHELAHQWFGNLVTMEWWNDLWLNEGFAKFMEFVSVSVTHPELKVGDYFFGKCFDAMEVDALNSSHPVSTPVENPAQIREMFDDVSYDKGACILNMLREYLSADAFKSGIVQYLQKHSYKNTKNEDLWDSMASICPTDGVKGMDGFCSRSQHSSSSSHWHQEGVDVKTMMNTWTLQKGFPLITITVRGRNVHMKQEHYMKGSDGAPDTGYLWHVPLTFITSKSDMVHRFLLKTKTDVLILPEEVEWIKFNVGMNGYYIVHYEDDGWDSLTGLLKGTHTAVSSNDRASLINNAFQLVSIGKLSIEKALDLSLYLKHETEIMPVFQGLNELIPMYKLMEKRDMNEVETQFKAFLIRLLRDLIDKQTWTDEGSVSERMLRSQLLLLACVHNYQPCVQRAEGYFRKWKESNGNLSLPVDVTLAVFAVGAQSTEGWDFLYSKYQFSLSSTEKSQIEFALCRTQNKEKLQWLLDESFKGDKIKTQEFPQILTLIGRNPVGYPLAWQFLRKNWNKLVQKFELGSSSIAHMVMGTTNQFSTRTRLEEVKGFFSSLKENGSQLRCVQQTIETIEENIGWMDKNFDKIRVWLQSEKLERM
Leucyl-cystinyl aminopeptidase, sequence (Q9UIQ6 whole entry): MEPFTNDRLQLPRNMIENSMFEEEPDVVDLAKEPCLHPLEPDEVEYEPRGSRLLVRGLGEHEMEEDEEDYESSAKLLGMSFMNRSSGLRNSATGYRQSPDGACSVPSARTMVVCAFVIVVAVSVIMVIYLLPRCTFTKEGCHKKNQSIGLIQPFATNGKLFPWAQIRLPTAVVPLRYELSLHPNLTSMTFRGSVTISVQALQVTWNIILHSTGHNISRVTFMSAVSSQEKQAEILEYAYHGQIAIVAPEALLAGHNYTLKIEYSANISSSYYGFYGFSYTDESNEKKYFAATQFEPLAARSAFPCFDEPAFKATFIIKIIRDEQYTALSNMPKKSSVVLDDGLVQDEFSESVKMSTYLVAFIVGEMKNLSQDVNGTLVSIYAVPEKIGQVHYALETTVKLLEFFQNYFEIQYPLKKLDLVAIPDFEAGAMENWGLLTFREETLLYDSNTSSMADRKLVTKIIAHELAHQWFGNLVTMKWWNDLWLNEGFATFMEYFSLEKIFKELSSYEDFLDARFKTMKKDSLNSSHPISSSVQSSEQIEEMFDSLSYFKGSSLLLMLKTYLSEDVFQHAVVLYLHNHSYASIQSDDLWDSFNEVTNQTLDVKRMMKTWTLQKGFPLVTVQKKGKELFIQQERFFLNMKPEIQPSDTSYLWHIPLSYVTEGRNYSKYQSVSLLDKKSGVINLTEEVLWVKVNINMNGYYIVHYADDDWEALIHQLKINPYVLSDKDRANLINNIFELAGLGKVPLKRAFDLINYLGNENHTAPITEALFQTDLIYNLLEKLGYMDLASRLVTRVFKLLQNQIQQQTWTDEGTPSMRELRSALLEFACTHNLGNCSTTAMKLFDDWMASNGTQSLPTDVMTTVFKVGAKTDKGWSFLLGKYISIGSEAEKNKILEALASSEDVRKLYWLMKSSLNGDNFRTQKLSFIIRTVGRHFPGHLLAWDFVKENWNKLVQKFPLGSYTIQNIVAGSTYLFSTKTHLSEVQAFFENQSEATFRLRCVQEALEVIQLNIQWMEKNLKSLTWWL

For the compound `NC(=O)[C@H](Cc1ccccc1)NC(=O)[C@@H](Cc1cc(-c2ccccc2)cc(-c2ccccc2)c1)CP(=O)(O)[C@@H](N)CCc1ccccc1`, the IC50 in series [1] was > 100 µM.

Take `NC(=O)[C@H](Cc1ccccc1)NC(=O)[C@H](Cc1cc(-c2ccccc2)cc(-c2ccccc2)c1)CP(=O)(O)[C@@H](N)CCc1ccccc1`: the IC50 in series [1] is > 35 µM.

Compound `C#CC[C@H](CP(=O)(O)[C@@H](N)CCc1ccccc1)C(=O)N[C@@H](Cc1ccccc1)C(N)=O` came in with an IC50 in series [2] of 0.002 µM.

On to `NC(=O)[C@H](Cc1ccccc1)NC(=O)[C@H](CC(c1ccccc1)c1ccccc1)CP(=O)(O)[C@@H](N)CCc1ccccc1`, for which the Activity result is listed as “Non-Toxic” in series [3], “Toxic” in series [5], “Non-Toxic” in series [6] and “Toxic” in series [8]. The inhibition entry in series [4] and in series [7] was “Dose-dependent effect” each time.
